Measurements reported in patent publication US12403077B2, “Use of a new composition for preventing or slowing the appearance of signs of inflammation” (SOCIETE D'EXPLOITATION DE PRODUITS POUR LES INDUSTRIES …, priority 2018, dated 2025).
Marks after values point to notes of the source that are not given here.

Assays:
TLR-3 = experiment: IL-8 and hBD2 production by normal human keratinocytes, TLR-3 activated by poly(I:C) (ELISA); assay type: cell-based; conditions: cells stimulated with poly(I:C), 100 nM
Experimental: The anti-inflammatory effect of compositions was evaluated on normal human keratinocytes under conditions imitating an imbalance in the cutaneous microbiota through the activation of 3 TLRs (Toll-Like Receptors). These receptors are activated by recognition of specific elements of the microbes, and their function is to alert the immune system in order to activate the body's defenses. In this model, the imbalance in the microbiota was modeled with various stimuli imitating a skin infection: • TLR-5 was activated by flagellin (the main protein of the flagellar filament, present in virtually all bacteria) • TLR-2 was activated by zymosan (glycoprotein complex extracted from yeast membranes) • TLR-3 was activated by poly(I:C) (a synthetic analog of the double-stranded RNA found in viruses)
The effect of the compositions tested was evaluated on the basis of their capacity to modulate the production of IL-8 and of hBD2 induced by these stimuli, using specific “ELISA” kits. The concentration of total proteins was also evaluated, in order to standardize the production of cytokin (IL-8) and of antimicrobial peptide (hBD2).
The values are expressed as means+/−sem [standard error of the mean=standard deviation/root (number of values)].
For each treatment, a calculation was made of: % protection=100×[mean (cells+treatment)−mean (stimulated cells)]/[mean (unstimulated cells)−mean (stimulated cells)] The statistical analysis of the results was conducted using a two-sided Student test with a significance threshold set at 5%, by pairwise comparison of the series of values. A difference between the efficacy of two products is considered to be: • significant if p<0.05; • “at the limit of significance” if 0.05≤p<0.1; • and not significant if p>0.1. B.2.2. Results Obtained In the three tables which follow: For stimulated cells: *** p<0.001 vs unstimulated cells. For treated and stimulated cells: *** p<0.001 vs stimulated cells. The results obtained following activation of TLR-5 by flagellin, the results are set out in table 10 below: […]

lipase = experiment: Anti-lipase activity in tubo (1,2-diglyceride to glycerol, absorbance 570 nm); assay type: biochemical; conditions: positive reference, concentration not given
Experimental: The subject of the method is to study the capacity of a composition to provoke and regulate the activity of the lipase enzyme by an in tubo method, said enzyme having an inflammatory action. Lipase has the capacity to convert the colorless 1,2-diglyceride into glycerol, which is pink in color. The samples for the evaluation test are placed in tubo in the presence of lipase and of 1,2-diglyceride, and the absorbance of the samples is measured in a spectrophotometer at a wavelength of 570 nm at the end of their preparation, then after 60 minutes of incubation at 37° C. under the same spectral conditions. By virtue of a range of glycerol, the lipase activity of the samples can be calculated, as can the percentage inhibition, by the following formulas: Lipase activity=(amount of glycerol formed between 0 and 60 minutes)/(60 minutes×sample volume) Percentage inhibition=100×[(lipase activity of control group)−(lipase activity of test product)]/(lipase activity of control group) Statistical Elements: The values are expressed as means+/−standard deviation. The statistical analysis of the results was conducted using a two-sided Student test with a significance threshold set at 5%, by pairwise comparison of the series of values. […]

| Compound | IL-8 (TLR-3) [pg/mg proteins] | IL-8 % protection (TLR-3) [%***] | hBD2 % protection (TLR-3) [%***] | hBD2 (TLR-3; mean +/- sem) | Lipase activity (lipase; 60 minutes at 37° C., mean +/- standard deviation) | % inhibition of the lipase (lipase; vs control) |
| --- | --- | --- | --- | --- | --- | --- |
| CO/C1=C\C(C)=C\[C@@H](C)[C@@H](O)[C@@H](C)C/C(C)=C/C=C/[C@H](OC)[C@@H]([C@@H](C)[C@@H](O)[C@H](C)[C@@]2(O)C[C@@H](O)[C@H](C)[C@@H](C(C)C)O2)OC1=O [bafilomycin] | <19 | 100 | 100 | 17 +/− 2 pg/mg proteins | – | – |
| O=C1O[C@H]([C@@H](O)CO)C(O)=C1O [Vitamin C] | – | – | – | – | 2.11 +/− 0.01 mU/mL | 50*** % |
